Several values for one entry are separate records, joined by “and”; a condition that tells them apart may be missing. Equal values may be shown once. Inconclusive results are not listed.
Tested on: Lewis lung carcinoma i.m., BDF1 mice, T/C %
Assay: NCI In Vivo Anticancer Drug Screen. Data for tumor model Lewis Lung Carcinoma (intramuscular) in B6D2F1 (BDF1) mice
Procedure, shortened: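 Compound given to mice with transplantable tumours; survival or tumour size compared against the vehicle control group, reported as T divided by C.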

## Cc1c(N)nc([C@H](CC(N)=O)NC[C@H](N)C(N)=O)nc1C(=O)N[C@H](C(=O)N[C@H](C)[C@@H](O)[C@H](C)C(=O)N[C@H](C(=O)NCCc1nc(-c2nc(C(=O)NCCC[S+](C)C)cs2)cs1)[C@@H](C)O)C(OC1OC(CO)C(O)C(O)C1OC1OC(CO)C(O)C(OC(N)=O)C1O)c1cnc[nH]1 (stereo partly drawn)
endpoint: mean tumor weight (est.), dose: 2.5 mg/kg/injection, schedule: Q01DX009 (ip), vehicle: saline, higher = larger tumour
  T/C: 44 % of control
endpoint: mean tumor weight (est.), dose: 8.4 mg/kg/injection, schedule: Q01DX009 (ip), vehicle: saline, higher = larger tumour
  T/C: 24 % of control and 42 % of control
endpoint: mean tumor weight (est.), dose: 14.0 mg/kg/injection, schedule: Q01DX009 (ip), vehicle: saline, higher = larger tumour
  T/C: 27 % of control and 37 % of control
endpoint: mean tumor weight (est.), dose: 23.0 mg/kg/injection, schedule: Q01DX009 (ip), vehicle: saline, higher = larger tumour
  T/C: 14 % of control and 26 % of control
endpoint: mean tumor weight (est.), dose: 39.0 mg/kg/injection, schedule: Q01DX009 (ip), vehicle: saline, higher = larger tumour
  T/C: 12 % of control
endpoint: mean tumor weight, dose: 3.0 mg/kg/injection, schedule: Q01DX011 (ip), vehicle: saline, higher = larger tumour
  T/C: 38 % of control
endpoint: mean tumor weight, dose: 3.75 mg/kg/injection, schedule: Q01DX011 (sc), vehicle: saline, higher = larger tumour
  T/C: 60 % of control
endpoint: mean tumor weight, dose: 4.0 mg/kg/injection, schedule: Q01DX011 (ip), vehicle: saline, higher = larger tumour
  T/C: 18 % of control
endpoint: mean tumor weight, dose: 5.0 mg/kg/injection, schedule: Q01DX011 (ip), vehicle: saline, higher = larger tumour
  T/C: 12 % of control and 15 % of control
endpoint: mean tumor weight, dose: 6.0 mg/kg/injection, schedule: Q01DX011 (ip), vehicle: saline, higher = larger tumour
  T/C: 19 % of control
endpoint: mean tumor weight, dose: 7.5 mg/kg/injection, schedule: Q01DX011 (sc), vehicle: saline, higher = larger tumour
  T/C: 23 % of control
endpoint: mean tumor weight, dose: 8.4 mg/kg/injection, schedule: Q01DX011 (ip), vehicle: saline, higher = larger tumour
  T/C: 7 % of control
endpoint: mean tumor weight, dose: 8.5 mg/kg/injection, schedule: Q01DX011 (ip), vehicle: saline, higher = larger tumour
  T/C: 19 % of control
endpoint: mean tumor weight, dose: 10.0 mg/kg/injection, schedule: Q04DX003 (ip), vehicle: saline, higher = larger tumour
  T/C: 56 % of control
endpoint: mean tumor weight, dose: 12.5 mg/kg/injection, schedule: Q04DX003 (ip), vehicle: saline, higher = larger tumour
  T/C: 23 % of control
endpoint: mean tumor weight, dose: 14.0 mg/kg/injection, schedule: Q01DX011 (ip), vehicle: saline, higher = larger tumour
  T/C: 6 % of control
endpoint: mean tumor weight, dose: 18.0 mg/kg/injection, schedule: Q04DX003 (ip), vehicle: saline, higher = larger tumour
  T/C: 35 % of control
endpoint: mean tumor weight, dose: 20.0 mg/kg/injection, schedule: Q01DX011 (ip), vehicle: saline, higher = larger tumour
  T/C: 2 % of control and 12 % of control
endpoint: mean tumor weight, dose: 20.0 mg/kg/injection, schedule: Q04DX003 (ip), vehicle: saline, higher = larger tumour
  T/C: 43 % of control
endpoint: mean tumor weight, dose: 23.0 mg/kg/injection, schedule: Q01DX011 (ip), vehicle: saline, higher = larger tumour
  T/C: 5 % of control
endpoint: mean tumor weight, dose: 23.0 mg/kg/injection, schedule: Q04DX003 (ip), vehicle: saline, higher = larger tumour
  T/C: 40 % of control
endpoint: mean tumor weight, dose: 25.0 mg/kg/injection, schedule: Q01DX001 (ip), vehicle: saline, higher = larger tumour
  T/C: 51 % of control
endpoint: mean tumor weight, dose: 25.0 mg/kg/injection, schedule: Q04DX003 (ip), vehicle: saline, higher = larger tumour
  T/C: 18 % of control
endpoint: mean tumor weight, dose: 36.0 mg/kg/injection, schedule: Q01DX001 (ip), vehicle: saline, higher = larger tumour
  T/C: 65 % of control
endpoint: mean tumor weight, dose: 36.0 mg/kg/injection, schedule: Q04DX003 (ip), vehicle: saline, higher = larger tumour
  T/C: 18 % of control
endpoint: mean tumor weight, dose: 39.0 mg/kg/injection, schedule: Q04DX003 (ip), vehicle: saline, higher = larger tumour
  T/C: 19 % of control
endpoint: mean tumor weight, dose: 40.0 mg/kg/injection, schedule: Q04DX003 (ip), vehicle: saline, higher = larger tumour
  T/C: 31 % of control
endpoint: mean tumor weight, dose: 51.0 mg/kg/injection, schedule: Q01DX001 (ip), vehicle: saline, higher = larger tumour
  T/C: 35 % of control
endpoint: median survival time, dose: 2.0 mg/kg/injection, schedule: Q01DX011 (ip), vehicle: saline, higher = longer survival
  T/C: 153 % of control
endpoint: median survival time, dose: 2.5 mg/kg/injection, schedule: Q01DX014 (ip), vehicle: saline, higher = longer survival
  T/C: 113 % of control
endpoint: median survival time, dose: 3.0 mg/kg/injection, schedule: Q01DX004 (ip), vehicle: saline, higher = longer survival
  T/C: 116 % of control
endpoint: median survival time, dose: 3.0 mg/kg/injection, schedule: Q09DX009 (ip), vehicle: saline, higher = longer survival
  T/C: 119 % of control and 120 % of control
endpoint: median survival time, dose: 3.75 mg/kg/injection, schedule: Q01DX011 (sc), vehicle: saline, higher = longer survival
  T/C: 158 % of control
endpoint: median survival time, dose: 4.0 mg/kg/injection, schedule: Q01DX011 (ip), vehicle: saline, higher = longer survival
  T/C: 119 % of control
endpoint: median survival time, dose: 5.0 mg/kg/injection, schedule: Q01DX004 (ip), vehicle: saline, higher = longer survival
  T/C: 123 % of control
endpoint: median survival time, dose: 5.0 mg/kg/injection, schedule: Q01DX009 (ip), vehicle: none, higher = longer survival
  T/C: 150 % of control and 163 % of control
endpoint: median survival time, dose: 5.0 mg/kg/injection, schedule: Q01DX011 (ip), vehicle: saline, higher = longer survival
  T/C: 150 % of control
endpoint: median survival time, dose: 5.0 mg/kg/injection, schedule: Q01DX014 (ip), vehicle: saline, higher = longer survival
  T/C: 123 % of control
endpoint: median survival time, dose: 5.0 mg/kg/injection, schedule: Q09DX009 (ip), vehicle: saline, higher = longer survival
  T/C: 150 % of control
endpoint: median survival time, dose: 6.5 mg/kg/injection, schedule: Q01DX011 (ip), vehicle: saline, higher = longer survival
  T/C: 158 % of control
endpoint: median survival time, dose: 7.5 mg/kg/injection, schedule: Q01DX011 (sc), vehicle: saline, higher = longer survival
  T/C: 153 % of control
endpoint: median survival time, dose: 8.0 mg/kg/injection, schedule: Q01DX011 (ip), vehicle: saline, higher = longer survival
  T/C: 150 % of control
endpoint: median survival time, dose: 8.4 mg/kg/injection, schedule: Q01DX004 (ip), vehicle: saline, higher = longer survival
  T/C: 123 % of control
endpoint: median survival time, dose: 8.4 mg/kg/injection, schedule: Q01DX009 (ip), vehicle: none, higher = longer survival
  T/C: 113 % of control and 115 % of control
endpoint: median survival time, dose: 8.4 mg/kg/injection, schedule: Q09DX009 (ip), vehicle: saline, higher = longer survival
  T/C: 116 % of control
endpoint: median survival time, dose: 10.0 mg/kg/injection, schedule: Q01DX011 (ip), vehicle: saline, higher = longer survival
  T/C: 167 % of control
endpoint: median survival time, dose: 10.0 mg/kg/injection, schedule: Q01DX014 (ip), vehicle: saline, higher = longer survival
  T/C: 124 % of control
endpoint: median survival time, dose: 10.0 mg/kg/injection, schedule: Q04DX003 (ip), vehicle: saline, higher = longer survival
  T/C: 107 % of control and 108 % of control
endpoint: median survival time, dose: 10.8 mg/kg/injection, schedule: Q01DX011 (ip), vehicle: saline, higher = longer survival
  T/C: 166 % of control
endpoint: median survival time, dose: 12.5 mg/kg/injection, schedule: Q04DX003 (ip), vehicle: saline, higher = longer survival
  T/C: 122 % of control
endpoint: median survival time, dose: 14.0 mg/kg/injection, schedule: Q01DX009 (ip), vehicle: none, higher = longer survival
  T/C: 159 % of control
endpoint: median survival time, dose: 14.0 mg/kg/injection, schedule: Q04DX003 (ip), vehicle: saline, higher = longer survival
  T/C: 112 % of control
endpoint: median survival time, dose: 15.0 mg/kg/injection, schedule: Q01DX011 (sc), vehicle: saline, higher = longer survival
  T/C: 161 % of control
endpoint: median survival time, dose: 16.0 mg/kg/injection, schedule: Q01DX011 (ip), vehicle: saline, higher = longer survival
  T/C: 150 % of control
endpoint: median survival time, dose: 18.0 mg/kg/injection, schedule: Q01DX011 (ip), vehicle: saline, higher = longer survival
  T/C: 152 % of control and 170 % of control
endpoint: median survival time, dose: 18.0 mg/kg/injection, schedule: Q04DX003 (ip), vehicle: saline, higher = longer survival
  T/C: 124 % of control
endpoint: median survival time, dose: 20.0 mg/kg/injection, schedule: Q01DX011 (ip), vehicle: saline, higher = longer survival
  T/C: 165 % of control
endpoint: median survival time, dose: 20.0 mg/kg/injection, schedule: Q01DX014 (ip), vehicle: saline, higher = longer survival
  T/C: 75 % of control
endpoint: median survival time, dose: 20.0 mg/kg/injection, schedule: Q04DX003 (ip), vehicle: saline, higher = longer survival
  T/C: 157 % of control and 160 % of control
endpoint: median survival time, dose: 23.0 mg/kg/injection, schedule: Q01DX009 (ip), vehicle: none, higher = longer survival
  T/C: 64 % of control and 95 % of control
endpoint: median survival time, dose: 23.0 mg/kg/injection, schedule: Q04DX003 (ip), vehicle: saline, higher = longer survival
  T/C: 112 % of control
endpoint: median survival time, dose: 23.0 mg/kg/injection, schedule: Q09DX009 (ip), vehicle: saline, higher = longer survival
  T/C: 169 % of control
endpoint: median survival time, dose: 25.0 mg/kg/injection, schedule: Q01DX001 (ip), vehicle: saline, higher = longer survival
  T/C: 107 % of control
endpoint: median survival time, dose: 30.0 mg/kg/injection, schedule: Q01DX011 (ip), vehicle: saline, higher = longer survival
  T/C: 166 % of control
endpoint: median survival time, dose: 36.0 mg/kg/injection, schedule: Q01DX001 (ip), vehicle: saline, higher = longer survival
  T/C: 124 % of control
endpoint: median survival time, dose: 39.0 mg/kg/injection, schedule: Q01DX004 (ip), vehicle: saline, higher = longer survival
  T/C: 54 % of control
endpoint: median survival time, dose: 39.0 mg/kg/injection, schedule: Q04DX003 (ip), vehicle: saline, higher = longer survival
  T/C: 103 % of control and 120 % of control
endpoint: median survival time, dose: 40.0 mg/kg/injection, schedule: Q01DX014 (ip), vehicle: saline, higher = longer survival
  T/C: 48 % of control
endpoint: median survival time, dose: 40.0 mg/kg/injection, schedule: Q04DX003 (ip), vehicle: saline, higher = longer survival
  T/C: 97 % of control
endpoint: median survival time, dose: 51.0 mg/kg/injection, schedule: Q01DX001 (ip), vehicle: saline, higher = longer survival
  T/C: 122 % of control
endpoint: median survival time, dose: 65.0 mg/kg/injection, schedule: Q04DX003 (ip), vehicle: saline, higher = longer survival
  T/C: 108 % of control
endpoint: median survival time, dose: 80.0 mg/kg/injection, schedule: Q04DX003 (ip), vehicle: saline, higher = longer survival
  T/C: 60 % of control

## COc1cc2c(c(OC)c1OC)-c1ccc(OC)c(=O)cc1[C@@H](NC=O)CC2
endpoint: mean tumor weight (est.), dose: 0.25 mg/kg/injection, schedule: Q01DX011 (ip), vehicle: saline, higher = larger tumour
  T/C: 90 % of control
endpoint: mean tumor weight (est.), dose: 0.5 mg/kg/injection, schedule: Q01DX011 (ip), vehicle: saline, higher = larger tumour
  T/C: 73 % of control
endpoint: mean tumor weight (est.), dose: 1.0 mg/kg/injection, schedule: Q01DX011 (ip), vehicle: saline, higher = larger tumour
  T/C: 49 % of control
endpoint: median survival time, dose: 0.25 mg/kg/injection, schedule: Q01DX011 (ip), vehicle: saline, higher = longer survival
  T/C: 90 % of control
endpoint: median survival time, dose: 0.5 mg/kg/injection, schedule: Q01DX011 (ip), vehicle: saline, higher = longer survival
  T/C: 116 % of control
endpoint: median survival time, dose: 1.0 mg/kg/injection, schedule: Q01DX011 (ip), vehicle: saline, higher = longer survival
  T/C: 88 % of control
